From PubChem BioAssay AID1949 (Southern Research Institute, 2009)
In brackets after ≈: the same amount, converted by molar mass. Records with an inconclusive call do not appear. Activity calls are given as the source filed them. The rule behind the calls is not given here.

System: M. tuberculosis H37Rv growth inhibition
Assay: Mycobacterium tuberculosis H37Rv growth inhibition, cell based, confirmatory dose response (AID 1949);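 note: bacteria grown 7 days with compound before Alamar blue readout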

Point of comparison: Cc1ccc(OCC(=O)c2ccc(Cl)cc2)cc1C, IC50 17.6 µg/mL (≈ 64.1 µM). Against it:
- N#Cc1cc2c(nc1SCC(=O)OCc1ccccc1)CCC2 — 43-fold lower, 0.41 µg/mL (≈ 1.26 µM)
- CCCCc1ccc(NC(=O)c2cc3cc(Br)cc(OC)c3oc2=O)cc1 — 26-fold lower, 0.69 µg/mL (≈ 1.6 µM)
- C=CS(=O)c1sc(Cl)c(N2CCOCC2)c1[N+](=O)[O-] (centres undefined) — 3.1-fold lower, 5.77 µg/mL (≈ 17.9 µM)
- COc1ccc(C(=O)NC(=S)NNC(=O)c2ccc(OC)c(OC)c2)cc1Br — lower, < 0.1 µg/mL
- Oc1ccc(Cl)cc1CNc1nc2ccccc2[nH]1 — within 1.5-fold, 12.1 µg/mL (≈ 44.3 µM)
- COc1ccc(-c2c(C)[nH]n3c(=O)c(Cc4ccccc4)c(C)nc23)cc1 — 14-fold lower, 1.28 µg/mL (≈ 3.56 µM)
- Cc1ccc(Cl)cc1N1CCN(CC(O)COc2ccc(Cl)cc2Cl)CC1 (centres undefined) — 2.6-fold lower, 6.67 µg/mL (≈ 15.5 µM)
- Clc1ccc(Cn2ncc3c(NCc4ccccc4)ncnc32)cc1 — 2.8-fold lower, 6.27 µg/mL (≈ 17.9 µM)
- Cc1cccc(Nc2nc(-c3ccccn3)cs2)n1 — lower, < 0.1 µg/mL
- COC(=O)c1ccc2c(=O)n(-c3ccccc3)c(SCc3ccccc3)nc2c1 — within 1.5-fold, 22.6 µg/mL (≈ 56.2 µM)
- COc1cc(CNc2nccs2)cc(Br)c1OCc1ccc(F)cc1 — 1.5-fold lower, 11.5 µg/mL (≈ 27.1 µM)
- Cc1ccc(C(=O)Nc2cc(C#N)c3[nH]c4ccccc4n3c2=O)cc1 — 2.7-fold lower, 6.55 µg/mL (≈ 19.1 µM)
- O=C(Nc1ccc(Cl)cc1)c1cc([N+](=O)[O-])ccc1O — within 1.5-fold, 17.7 µg/mL (≈ 60.6 µM)
- COc1ccc(NC(=O)c2ccccc2Oc2ccccc2)c(OC)c1 — lower, < 0.1 µg/mL
- CCOC(=O)c1c(-c2ccc(C)o2)csc1NC(=S)NC(=O)N(C)C — 9.5-fold lower, 1.85 µg/mL (≈ 4.85 µM)
- COC(=O)c1ccc(NC(=O)CSc2nnc(-c3ccc(Br)cc3)o2)cc1 — 3-fold lower, 5.83 µg/mL (≈ 13 µM)
- CCCCN1C(=O)C(=O)c2cc(Br)ccc21 — 1.9-fold lower, 9.17 µg/mL (≈ 32.5 µM)
- C/C(=N/N=C1\NC(=O)C(Cc2ccc(Cl)cc2)S1)c1ccc(F)cc1 (centres undefined) — within 1.5-fold, 19 µg/mL (≈ 50.6 µM)
- Cc1cccc2sc(NC(=O)c3ccc(C(C)(C)C)cc3)nc12 — 13-fold lower, 1.39 µg/mL (≈ 4.28 µM)
- CCCOc1ccc(C2Oc3ccc(Br)cc3C=C2[N+](=O)[O-])cc1OC (centres undefined) — 12-fold lower, 1.48 µg/mL (≈ 3.52 µM)
- O=C(Nc1cccc2ncccc12)c1ccc([N+](=O)[O-])o1 — 4.1-fold lower, 4.28 µg/mL (≈ 15.1 µM)
- Cc1cc([N+](=O)[O-])ccc1NC(=O)Nc1cccc(C(F)(F)F)c1 — 73-fold lower, 0.24 µg/mL (≈ 0.707 µM)
- O=S1(=O)C=C(Sc2nnc(-c3ccncc3)o2)c2ccccc21 — 13-fold lower, 1.33 µg/mL (≈ 3.87 µM)
- CCOC(=O)c1c(NC(=O)CNC(C)CC)sc2c1CCCC2 (centres undefined) — within 1.5-fold, 17.4 µg/mL (≈ 51.4 µM)
- CCCNC(=S)NC(=O)c1ccc(C(C)(C)C)cc1 — within 1.5-fold, 17 µg/mL (≈ 61 µM)
- CCOC(=O)c1c(NC(=O)CN2CCN(C)CC2)sc2c1CCC(C)C2 (centres undefined) — 3-fold lower, 5.8 µg/mL (≈ 15.3 µM)
- Clc1ccc(Nc2nc(-c3ccccn3)cs2)nc1 — lower, < 0.1 µg/mL
- CSc1nsc(SCC(=O)N2CCc3ccccc32)n1 — within 1.5-fold, 12 µg/mL (≈ 37 µM)
- Cc1cc(Br)c2[nH]c(O)c(N=NC(=O)COc3ccccc3C)c2c1 — within 1.5-fold, 18.7 µg/mL (≈ 46.4 µM)
- CCOC(=O)c1ccc(NC(=O)/C=C/c2ccc([N+](=O)[O-])s2)cc1 — 63-fold lower, 0.28 µg/mL (≈ 0.808 µM)
- O=C(CC(O)(C(F)(F)F)C(F)(F)F)Nc1ccc(Cl)cc1Cl — 3.1-fold lower, 5.7 µg/mL (≈ 15.4 µM)
- CCN(CC)c1ccc(NC(=O)c2cnccn2)cc1 — 7.4-fold lower, 2.37 µg/mL (≈ 8.77 µM)
- Cc1ccc(-c2ccc(OCC(=O)OCc3ccccc3)cc2)cc1 — 77-fold lower, 0.23 µg/mL (≈ 0.692 µM)
- CCOc1cccc2cc(-c3nc4ccc(C)cc4[nH]3)c(=O)oc12 — lower, < 0.1 µg/mL
- Cc1ccc(SC(C)C(=O)Nc2ccc(Cl)c(Cl)c2)cc1 (centres undefined) — within 1.5-fold, 12.3 µg/mL (≈ 36.1 µM)
- Cc1c(C(=O)NC(=S)Nc2ccc(Oc3ccc(Cl)cc3)cc2)cccc1[N+](=O)[O-] — 12-fold lower, 1.49 µg/mL (≈ 3.37 µM)
- COc1ccc(CN2CCC(N(CCc3ccccc3)Cc3ccccc3)CC2)c(OC)c1 — 6.7-fold lower, 2.61 µg/mL (≈ 5.87 µM)
- O=C(Oc1cccc2cccnc12)c1ccco1 — 23-fold lower, 0.75 µg/mL (≈ 3.14 µM)
- O=C(/C=C/c1cc([N+](=O)[O-])ccc1O)c1ccc(Cl)cc1 — 14-fold lower, 1.24 µg/mL (≈ 4.08 µM)
- Cc1ccc(-c2nnc3sc(Cc4ccccc4)nn23)cc1 — lower, < 0.1 µg/mL
- CC(C)(C)c1ccc(C(=O)Nc2nc(-c3ccccc3)ns2)cc1 — 5.8-fold lower, 3.05 µg/mL (≈ 9.04 µM)
- CC(NCc1cccc(OCc2ccccc2)c1)C(O)c1ccccc1 (centres undefined) — 3.2-fold lower, 5.53 µg/mL (≈ 15.9 µM)
- Cc1ccccc1NC(=O)c1ccccc1NC(=S)NC(=O)c1cccnc1 — 14-fold lower, 1.3 µg/mL (≈ 3.33 µM)
- CC(=O)c1ccc(NC(=O)NC(C)C23CC4CC(CC(C4)C2)C3)cc1 (centres undefined) — within 1.5-fold, 19 µg/mL (≈ 55.8 µM)
- COc1cccc(C(=O)OCc2cccc(C(=O)Oc3ccccc3)c2)c1 — 1.9-fold lower, 9.15 µg/mL (≈ 25.2 µM)
- Cc1ccc(-c2[nH]c(-c3ccc([N+](=O)[O-])cc3)nc2-c2ccccc2)cc1 — 2.5-fold lower, 7.13 µg/mL (≈ 20.1 µM)
- O=C(CNS(=O)(=O)c1cccc(C(F)(F)F)c1)N1CCN(c2ccc(Cl)c(Cl)c2)CC1 — 3.7-fold lower, 4.79 µg/mL (≈ 9.65 µM)
- CCOC(=O)C1=C(c2ccc(C)cc2)C(=O)c2ccccc2C1=O — 5.8-fold lower, 3.03 µg/mL (≈ 9.46 µM)
- Cc1cc(Cl)c(OCCCNCc2ccccc2)c(Br)c1 — 1.6-fold lower, 11.3 µg/mL (≈ 30.7 µM)

With Cc1ccccc1C(=O)N1CCN(c2ccc(NC(=S)NC(=O)c3cccc(Cl)c3)cc2)CC1 the IC50 was > 50 µg/mL (inactive).
With O=c1c2ccccc2nc(/C=C/c2ccc(Br)cc2)n1-c1ccc(O)cc1 the IC50 was > 50 µg/mL (inactive).
O=C(CCc1nc(-c2ccc(Cl)cc2)no1)OCc1ccc(Br)cc1 was tested, and the IC50 was > 50 µg/mL (inactive).
For CN1CCN(c2ccc(NC(=O)c3ccc(Cl)c(Cl)c3)cc2)CC1, the IC50 was > 50 µg/mL (inactive).
With Cc1ccc(CNC(=O)c2ccc(C)cc2Cl)cc1 the IC50 was > 50 µg/mL (inactive).
In the case of Cc1cccc2c1N(CCOc1ccc(C(C)(C)C)cc1)C(=O)C2=O, the IC50 is reported as > 50 µg/mL (inactive).
With O=C(CC12CC3CC(CC(C3)C1)C2)NC(=S)Nc1ccc2c(c1)OCCO2 the IC50 was > 50 µg/mL (inactive).
With CCSc1nc2ccccc2n1C(=O)c1ccc(S(=O)(=O)N2CCOCC2)cc1 the IC50 was > 50 µg/mL (inactive).
In the case of O=C(CCN1CCC(c2ccccc2)C1)c1ccco1 (centres undefined), the IC50 is reported as > 50 µg/mL (inactive).
